The values below come from article PMC8708985, “Regulation of D-Aspartate Oxidase Gene Expression by Pyruvate Metabolism in the Yeast Cryptococcus humicola” (Microorganisms, 2021).

The experiment deals with T1, ChDDO (Vanrija humicola, UniProt Q75WF1).
T1 construct: gene DDO; native enzyme in crude extract of D-Asp-induced strain UJ1 cells; FAD added
Nature of the experiment: HRP-coupled phenol/4-aminoantipyrine H2O2 assay at […] nm, crude extract. Type of experiment: biochemical. The conditions noted are these: 20 mM D-Asp; 20 uM FAD; 50 mM potassium phosphate pH 8.0.

T1 sequence (Q75WF1 whole entry): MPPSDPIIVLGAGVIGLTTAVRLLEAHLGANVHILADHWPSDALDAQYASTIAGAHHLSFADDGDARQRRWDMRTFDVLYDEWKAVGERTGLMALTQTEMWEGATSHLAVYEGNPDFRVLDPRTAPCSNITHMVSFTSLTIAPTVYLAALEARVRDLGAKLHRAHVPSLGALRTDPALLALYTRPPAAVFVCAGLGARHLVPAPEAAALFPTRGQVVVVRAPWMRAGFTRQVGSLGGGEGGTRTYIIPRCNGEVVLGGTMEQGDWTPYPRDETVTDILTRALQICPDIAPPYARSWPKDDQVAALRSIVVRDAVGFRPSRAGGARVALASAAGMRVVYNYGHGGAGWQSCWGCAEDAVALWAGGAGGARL

On to `N[C@H](CC(=O)O)C(=O)O` [D-Asp], for which the “HRP-coupled phenol/4-aminoantipyrine H2O2 assay at 505 nm, crude extract” value is “the enzyme activity in the crude extract of the ΔChpyc1 strain induced by D-Asp”.
